{"source": "patent US20230337671A1", "about": "“DISINFECTANT COMPOSITION” (Helperby Therapeutics Limited, priority 2020, published 2023)", "type_in_all_cases": "physicochemical", "key": {"[1]": {"assay": "Contact angle of a drop on the surface of parafilm (DataPhysics OCA 35)", "conditions": "0.03% w/w solution", "method": "To support the use of a low concentration of HT61 acting as an emollient in an aqueous disinfectant composition, the surface tension, contact angle and hydrophilic lipophilic balance (HLB) of this compound were determined. • Sample Preparation: A 0.03% w/w solution was required for both the contact angle and surface tension measurements. This solution was prepared by adding 0.075 g of the HT61 solid (obtained according to the method set out in WO 2007/054693 A1 discussed above) to 250 ml of demineralised water. Some solid remained in solution so analysis was carried out using UV-Vis Spectroscopy. […] The surface tension of the sample was measured using a DataPhysics DCAT 9 tensionmeter and the Wilhelmy plate method. The measurement was made three times, with the plate being cleaned between each measurement. • The contact angle was measured on the surface of parafilm. A sample of parafilm was wrapped around a glass slide and the protective film removed. The contact angle of the liquid with the parafilm was measured by placing a small (e.g. 2 μl) drop of test liquid (the sample) on the test surface. The profile of the drop was measured as a function of time using a DataPhysics OCA 35. Each liquid was measured three times. The contact angles were determined 2 s, 12 s and 30 s after the drop first touched the surface. For reference, the contact angle of demineralised water was also measured. • The HLB Value was obtained using […] mathematical method (Griffin, W.C., Calculation of HLB Values of Non-Ionic Surfactants, Journal of the Society of Cosmetic Chemists, 1954, 5(4), 249-56): • [formula] • where Mh is the molecular weight of hydrophilic groups (44 gmol^-1) and M is the molecular weight of the whole molecule (380 gmol^-1). • The factor 20 is a scaling factor. Thus a scale of 1 to 20 is generally obtained."}, "[2]": {"assay": "Preparation of 0.03% w/w HT61 solution in demineralised water, UV-Vis check", "conditions": "0.075 g HT61 solid added to 250 ml demineralised water (0.03% w/w)", "method": "(§1) To support the use of a low concentration of HT61 acting as an emollient in an aqueous disinfectant composition, the surface tension, contact angle and hydrophilic lipophilic balance (HLB) of this compound were determined. • Sample Preparation: A 0.03% w/w solution was required for both the contact angle and surface tension measurements. This solution was prepared by adding 0.075 g of the HT61 solid (obtained according to the method set out in WO 2007/054693 A1 discussed above) to 250 ml of demineralised water. Some solid remained in solution so analysis was carried out using UV-Vis Spectroscopy. […] The surface tension of the sample was measured using a DataPhysics DCAT 9 tensionmeter and the Wilhelmy plate method. The measurement was made three times, with the plate being cleaned between each measurement. • The contact angle was measured on the surface of parafilm. A sample of parafilm was wrapped around a glass slide and the protective film removed. The contact angle of the liquid with the parafilm was measured by placing a small (e.g. 2 μl) drop of test liquid (the sample) on the test surface. The profile of the drop was measured as a function of time using a DataPhysics OCA 35. Each liquid was measured three times. The contact angles were determined 2 s, 12 s and 30 s after the drop first touched the surface. […]"}, "[3]": {"assay": "Surface tension, Wilhelmy plate method (DataPhysics DCAT 9 tensionmeter)", "conditions": "0.03% w/w HT61 in demineralised water, assumed saturated; measured three times", "method": "as §1"}}}
{"smiles": "Cc1nc2ccc(Oc3ccccc3)cc2c2c1CCN2CCc1ccccc1", "note": "[HT61, 4-methyl-8-phenoxy-1-(2-phenylethyl)-2,3-dihydro-1H-pyrrolo[3,2-c]quinoline]", "values": [{"measurement": "Average Contact Angle @2s", "setting": "[1]; 2 s after drop touched surface", "value": 98}, {"measurement": "Average Contact Angle @12s", "setting": "[1]; 12 s after drop touched surface", "value": 96}, {"measurement": "Average Contact Angle @30s", "setting": "[1]; 30 s after drop touched surface", "value": 96}, {"measurement": "Dissolution of HT61 solid in demineralised water", "setting": "[2]", "value": "the solution was saturated"}, {"measurement": "Average Surface Tension", "setting": "[3]", "value": 55.7, "unit": "mN/m"}]}
